In PubChem BioAssay (NCI) one finds TGI data, which are given here for 17 molecules.

Test in all cases: NCI anticancer screen, dose series, 48 h
For test [1], the system named is 786-0 renal.
Test [2] relates to A549 NSCLC.
For test [3], the system named is CAKI-1 renal.
Test [4] relates to DU-145 prostate.
For test [5], the system named is HCT-15 colon.
The test system of test [6] is HT29 colon.
The subject of test [7] is IGROV1 ovarian.
Test [8] deals with MALME-3M melanoma.
The test system of test [9] is NCI-H460 lung.
Test [10] relates to SF-539 CNS.
The subject of test [11] is SK-MEL-28 melanoma.
Test [12] relates to SK-OV-3 ovarian.
For test [13], the system named is SN12C renal.
In test [14] the test system is SR leukemia.
For test [15], the system named is UACC-257 melanoma.
Test [16] has as its system UACC-62 melanoma.
The test system of test [17] is UO-31 renal.
The test system of test [18] is RPMI-8226 leukemia.

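These data come from cells grown in 96-well plates and exposed to compound for 48 hours at five concentrations. The concentration for full growth arrest is given as TGI.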 Some results are limits rather than exact numbers.

Regarding `COCOc1cc(OC)c(Br)cc1C/C(=N/O)C(=O)OC`, the TGI in test [1], in test [2], in test [3], in test [4], in test [5] and in test [6] was greater than 100 µM throughout. Also, the TGI in test [7], in test [8], in test [9], in test [10], in test [11] and in test [12] was greater than 100 µM throughout. For the same molecule, the TGI in [13], in test [14], in [15], in test [16] and in [17] was greater than 100 µM each time.

Take `CCOc1ncn(-c2ccc(NC(=S)Nc3cnccn3)cc2)n1`: the TGI in test [1], in [2], in test [4], in test [5], in test [6] and in [7] was greater than 10 µM each time. The TGI in test [8], in [9], in test [10], in test [12], in [13] and in [14] was greater than 10 µM each time. For the same molecule, the TGI in test [15], in test [16] and in [17] was greater than 10 µM in each case.

As for `CCOC(=O)CCC(NC(=O)c1ccc(Nc2cnc3cc(C(F)(F)F)ccc3n2)cc1)C(=O)OCC` (centres undefined), the TGI in [1] was greater than 66.8 µM; in [2], greater than 100 µM; in test [3], 47 µM; in [4] it was greater than 100 µM; in test [5], greater than 100 µM; in test [6], greater than 100 µM. Moreover, the TGI in test [7], in [8], in test [9], in test [18], in test [10] and in test [11] was greater than 100 µM in each case. In addition, the TGI in test [13], in test [14], in test [15] and in [17] was greater than 100 µM each time.

`O=C1N(CN2CCOCC2)CN(CN2CCOCC2)C(=O)N1Cc1ccc(-c2ccc(CN3C(=O)N(CN4CCOCC4)CN(CN4CCOCC4)C3=O)cc2)cc1`: the TGI in [1] was 79.4 µM; in test [2] it was 57.6 µM; in [3] it was 29.2 µM; in test [4], 40.1 µM; in test [5], greater than 91.2 µM; in [6], greater than 100 µM. The TGI in test [7] was 46.4 µM; in test [8], 34.6 µM; in test [9] it was 54.5 µM; in test [10], greater than 74.3 µM; in test [11], 36.2 µM; in [12], greater than 100 µM. Further, the TGI worked out at 18.9 µM in test [14], 37.9 µM in test [15], 37.7 µM in test [16] and 40.6 µM in test [17].

`COC(=O)C1=C([C@H]2COC(C)(C)O2)[C@H]2C[C@@H]1[C@@H]1OC(C)(C)O[C@@H]12`: the TGI in [1], in [2], in [4], in test [5], in [6] and in test [7] was greater than 100 µM each time. Moreover, the TGI in [8], in [9], in test [18], in [10], in [11] and in test [12] was greater than 100 µM each time. The TGI in test [13], in test [14], in test [15], in test [16] and in [17] was greater than 100 µM throughout.

For `CC1(C)C(=O)N(O)C(C)(C)N1N=O`, the TGI in [1], in [2], in test [3], in [4], in test [5] and in [6] was greater than 10 µM each time. The TGI in [8], in test [9], in [18], in test [13], in test [14] and in test [15] was greater than 10 µM in each case. In test [17], this molecule showed a TGI greater than 10 µM.

As to `COc1cc(C2=C(C)[C@@H]3CN(CC=C3c3ccc(Cl)cc3)C2)c(S(=O)(=O)O)cc1OC`, the TGI in test [1], in test [2], in test [3], in test [4], in test [5] and in test [6] was greater than 100 µM in each case. The TGI in [7], in test [8], in test [18], in test [11], in [12] and in test [13] was greater than 100 µM in each case. Also, the TGI in test [14], in test [15], in test [16] and in test [17] was greater than 100 µM in each case.

`COC1/C=C\OC2(C)Oc3c(C)c(O)c4c(O)c(c(/C=N\OCCCc5ccccc5)c(O)c4c3C2=O)NC(=O)/C(C)=C\C=C/C(C)C(O)C(C)C(O)C(C)C(OC(C)=O)C1C` (centres undefined): the TGI worked out at 9.81 µM in [1]; 12.9 µM in test [2]; 15.2 µM in [3]; 15.7 µM in test [4]; 11 µM in test [5]; 11.3 µM in test [6]. Also, the TGI in test [7] worked out at 6.74 µM; in [8], 12 µM; in test [9], 15.6 µM; in [10] it was 7.3 µM; in test [11], 4.65 µM; in [12], 15.4 µM. For the same molecule, the TGI in test [13] came out at 7.66 µM; in [14], 5.98 µM; in test [15], 18.6 µM; in [16], 10.1 µM.

For the molecule `CCOC(=O)c1c(C)noc1/N=N/N(CCO)CCO`, the TGI in [1], in [2], in [3], in [4], in test [5] and in [6] was greater than 100 µM throughout. In addition, the TGI in test [7], in test [8], in test [9], in test [11], in test [12] and in test [13] was greater than 100 µM each time. The TGI in test [14] is 66.1 µM; in test [15], 86.5 µM; in test [16], greater than 100 µM; in [17], 77.2 µM.

`C[n+]1c2ccccc2c(C(=O)NC(CCCN=C(N)N)C(=O)O)c2ccccc21` (centres undefined): the TGI in test [1], in [2], in test [4], in test [5], in [6] and in [7] was greater than 100 µM throughout. The TGI in [8], in test [9], in test [18], in [10], in test [11] and in test [12] was greater than 100 µM throughout. Besides, the TGI in test [13], in test [14], in test [15], in [16] and in test [17] was greater than 100 µM each time.

On to `C=C1C(=O)CCC1C(=O)O` (centres undefined), for which the TGI in test [1], in test [2], in test [4], in [5], in test [6] and in [7] was greater than 100 µM in each case. In addition, the TGI in test [8], in test [9], in test [18], in test [10], in test [11] and in [12] was greater than 100 µM in each case. Moreover, the TGI in test [13], in test [14], in [15], in [16] and in test [17] was greater than 100 µM each time.

On to `CN(C)Cc1cc(C(=O)/C=C/c2ccc(Br)cc2)cc(CN(C)C)c1O`, for which the TGI in test [1] was 19 µM; in test [2], 26.2 µM; in [3], 6.34 µM; in [4] it was 25.1 µM; in test [5], 25.3 µM; in [6] it was 12.5 µM. For the same molecule, the TGI in test [7] came out at 26.3 µM; in [8], 34.6 µM; in test [9] it was 21.9 µM; in test [18] it was 26.8 µM; in test [10] it was 31.9 µM; in [11], 25.3 µM. Moreover, the TGI in test [13] is 14.8 µM; in test [14], 50.6 µM; in test [15], 19.5 µM; in [17] it was 9.04 µM.

Take `c1ccc(CN2CCCN3CCN(CCCN(Cc4ccccc4)CC3)CC2)cc1`: the TGI in test [1], in test [2], in [3], in test [4], in test [5] and in test [6] was greater than 100 µM throughout. In addition, the TGI in test [7], in test [9], in [18], in test [10], in [11] and in [12] was greater than 100 µM throughout. Moreover, the TGI in test [13] was greater than 100 µM; in test [14], greater than 100 µM; in test [15], 68.5 µM; in test [16], greater than 100 µM; in test [17], greater than 100 µM.

For the molecule `COc1ccc(/C=N/NC(=O)c2ccccc2Nc2ccccc2C(=O)N/N=C/c2ccc(OC)cc2)cc1`, the TGI in test [1], in test [2], in [3], in [4], in test [5] and in [6] was greater than 100 µM throughout. The TGI in [7], in test [8], in test [9], in [18], in test [11] and in test [12] was greater than 100 µM each time. In addition, the TGI in [13], in test [14], in test [15], in test [16] and in [17] was greater than 100 µM throughout.

`C/C(=N/NC(=S)N(C)CCc1ccccn1)c1cnccn1`: the TGI in [1] was 6.8 µM; in test [2], 11.5 µM; in [3], 10.5 µM; in test [4], greater than 32 µM; in test [5], 29 µM; in test [6] it was 11.9 µM. In addition, the TGI in test [8] is 5.11 µM; in test [9], 13 µM; in [18], 26.1 µM; in [10], 28 µM; in test [11], 40.3 µM; in test [12], 0.947 µM. Further, the TGI in test [13] is 10 µM; in test [14] it was greater than 100 µM; in test [15], 34.6 µM; in test [17], 0.272 µM.

Consider `CCCCCCCC/C=C\CCCCCCCC(=O)OC[C@]1(CO)CCC(=O)O1`, for which the TGI in test [1], in test [2], in [3], in test [4], in test [5] and in test [6] was greater than 100 µM in each case. Moreover, the TGI in test [7], in test [8], in test [9], in test [11], in test [12] and in test [13] was greater than 100 µM in each case. Also, the TGI in [14], in test [15], in test [16] and in test [17] was greater than 100 µM throughout.

On to `CC(NC1=NCCO1)c1cccs1` (centres undefined), for which the TGI in test [1] is 36.6 µM; in test [2] it was greater than 100 µM; in test [4], greater than 100 µM; in [5], greater than 100 µM; in test [6], 42.6 µM; in test [7] it was 61.6 µM. Also, the TGI in test [8] was 76.8 µM; in test [9] it was greater than 100 µM; in [18] it was greater than 100 µM; in test [11], 53.9 µM; in test [12] it was greater than 100 µM; in [13], greater than 100 µM. In addition, the TGI in test [14] was greater than 100 µM; in [15], 37.9 µM; in test [16], 37.3 µM; in test [17], 92.8 µM.
